Laboratory results published in patent US5880099A, “Inositol polyphosphates and methods of using same” (The Regents of the University of California, priority 1997, dated 1999).

Columns and labels:
Type in all cases: cell-based, human
[1] = system: colonic epithelial T84 cells (calcium-mediated chloride ion secretion); assay: Inhibition of calcium-mediated chloride ion secretion (Table I summary)
Procedure, shortened: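 T84 monolayers (passages 18-48, 7-10 days on permeable supports) preincubated with 100, 200 or 400 μM Bt2-Ins(3,4,5,6)P4/AM for 30 min before Ussing-chamber mounting. After another 30 min, 0.1 mM histamine added; chloride secretion recorded as voltage-clamped short circuit current (Isc).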

Ins(3,4,5,6)P4 = assay: Intracellular Ins(3,4,5,6)P4 level in (3H)-inositol labeled T84 cells; details: 400 μM D,L-Bt3 -Ins(1,3,4)P3 /AM
[2] = system: T84 cells (carbachol-stimulated chloride ion secretion); assay: Carbachol-stimulated (calcium-mediated) chloride ion secretion in T84 cells
Description: The cell permeable derivative D,L-Bt3 -Ins(1,3,4)P3 /AM was synthesized. Colonic epithelial T84 cells were preincubated for 30 min with 400 μM D,L-Bt3 -Ins(1,3,4)P3 /AM prior to mounting in Ussing chambers and measuring ΔIsc. At 10 min, carbachol (10^-4 M) was added to transiently stimulate calcium-mediated chloride ion secretion. Data were the average of 8 experiments with p<0.04, unpaired, two-sided student's t-test. […]

[3] = system: T84 cells (histamine-stimulated chloride ion secretion); assay: Histamine-stimulated chloride ion secretion (short circuit current) in T84 monolayers
Description: Enantiomerically pure 1,2-Bt2 -Ins(3,4,5,6)P4 /AM was synthesized to determine if 1,2-Bt2 -Ins(3,4,5,6)P4 /AM mediates the uncoupling of chloride ion secretion from intracellular calcium concentrations. […] After 7-10 days of incubation on SNAP-WELLS (Corning Costar; Cambridge, Mass.), monolayers had formed tight junctions. Cell monolayers were preincubated with 100, 200 or 400 μM Bt2 -Ins(3,4,5,6)P4 /AM for 30 min prior to mounting. After an additional 30 min, 0.1 mM histamine was added and chloride ion secretion was monitored. Chloride ion secretion was measured as short circuit current (Isc) across T84 monolayers grown to confluence and mounted in Ussing chambers equipped with voltage clamps (Physiologic Instruments; San Diego, Calif.). Data was acquired and analyzed using "Acquire and Analyze" software (Physiologic Instruments).
Initial studies were directed towards understanding structural determinants of Ins(3,4,5,6)P4 responsible for the inhibitory effect on calcium-mediated chloride ion secretion. A series of cell permeable inositol polyphosphate derivatives were synthesized. These derivatives contained either one or two non-hydrolyzable chemical groups on the 1, 2 or 3 position. T84 monolayers were preincubated for 30 minutes with 200 μM of 2-Bt-1-Me-Ins(3,4,5,6)P4 /AM, Me2 -Ins(3,4,5,6)P4 /AM, Me2 -Ins(1,4,5,6)P4 /AM or 2-Bt-3-Me-Ins(1,4,5,6)P4 /AM.
Following the incubation, cells were mounted in Ussing chambers. Calcium-mediated chloride ion secretion was stimulated with histamine (10^-4 M). Control values were the response to histamine in coincubated monolayers. Data are represented as mean peak ΔIsc ±SEM, expressed as % control for 8 to 10 experiments. Significant differences were identified using the Student's two-tailed t test.

intracellular calcium = assay: Intracellular calcium concentration in treated cells
Description: Elevation in intracellular calcium concentration leads to increased chloride ion secretion. To ensure that none of the effects of the inositol polyphosphate derivatives on chloride ion secretion were due to changes in calcium levels, the concentration of intracellular calcium was measured in cells treated with the inositol polyphosphate derivatives. […] None of the compounds tested altered intracellular calcium levels by themselves or modified levels of intracellular calcium stimulated with carbachol or thapsigargin. Therefore, the effects of inositol polyphosphate derivatives on chloride ion secretion are not due to any effect on intracellular calcium concentrations.

[4] = system: T84 cells (EGF induced inhibition of chloride ion secretion); assay: EGF induced inhibition of carbachol-stimulated chloride ion secretion in T84 cells and its reversal; details: EGF 16.3 nM, carbachol 100 μM
Description: After an additional 15 min incubation, 100 μM carbachol was added to acutely elevate intracellular calcium concentrations. Controls also were stimulated with carbachol but were not pretreated with EGF. Data are the means of duplicate measurements from a representative experiment (total of three experiments).

[5] = system: T84 cells (PtdInsP3-mediated decrease in chloride ion secretion); assay: Reversal of PtdInsP3-mediated decrease in chloride ion secretion in T84 cells; details: FIG. 7d, 7e
Description: T84 cells also were preincubated with cell permeable Ins(1,4,5,6)P4 derivatives to determine whether Ins(1,4,5,6)P4 can reverse PtdInsP3 -mediated decreases in chloride ion secretion.

[6] = system: T84 cells (EGF inhibition of cyclic AMP-mediated chloride ion secretion); assay: EGF inhibition of cyclic AMP-mediated chloride ion secretion, reversal

CCCC(=O)O[C@@H]1[C@@H](OC(=O)CCC)[C@H](OP(=O)(OCOC(C)=O)OCOC(C)=O)[C@@H](OP(=O)(OCOC(C)=O)OCOC(C)=O)[C@@H](OC(=O)CCC)[C@H]1OP(=O)(OCOC(C)=O)OCOC(C)=O (relative stereo) [D,L-Bt3 -Ins(1,3,4)P3 /AM, D,L-2,5,6-tri-O-butyryl-myo-inositol 1,3,4-trisphosphate hex (acetoxymethyl) ester]
Mechanism and Inositol Polyphosphate Pathway Affected ([1]; pathway: Ins (3,4,5,6)P4): Agonist of
increase in Ins(3,4,5,6)P4 (Ins(3,4,5,6)P4): three-fold increase
peak ΔIsc ([2]; 400 μM, 30 min preincubation, carbachol 10^-4 M, 8 experiments, control 15.2±2.8, p<0.04): 7.9±1.6
inhibition at 400 µM ([2]; Homo sapiens, 0.5 h, 400 μM D,L-Bt3 -Ins(1,3,4)P3 /AM, read-out: decrease of calcium-mediated chloride ion secretion): ~50%
effect on carbachol-stimulated / calcium-mediated chloride ion secretion (in words) ([2]; T84 cells, preincubation): inhibits calcium-mediated chloride ion secretion

CCCC(=O)O[C@@H]1[C@H](OC(=O)CCC)[C@@H](OP(=O)(OCOC(C)=O)OCOC(C)=O)[C@H](OP(=O)(OCOC(C)=O)OCOC(C)=O)[C@@H](OP(=O)(OCOC(C)=O)OCOC(C)=O)[C@@H]1OP(=O)(OCOC(C)=O)OCOC(C)=O [Bt2 -Ins(1,4,5,6)P4 /AM, 2,3-di-O butyryl-myo-inositol 1,4,5,6-TKphosphate oct (acetoxymethyl) ester]
Mechanism and Inositol Polyphosphate Pathway Affected ([1]; pathway: PtdInsP3): Antagonist of
activity at 400 µM ([3]; Homo sapiens, T84, 0.5 h, 400 μM compound alone, mean ± SEM, read-out: Peak ΔIsc (% Control) after histamine (100 μM)): 138 ± 20.7%
effect on histamine-stimulated / calcium-mediated chloride ion secretion (in words) ([3]; T84 cells): did not inhibit chloride ion secretion and in fact led to a slight increase in chloride ion secretion
effect on intracellular calcium (in words) (intracellular calcium; alone): did not elevate intracellular calcium
effect on calcium response to thapsigargin or carbachol (in words) (intracellular calcium; thapsigargin or carbachol stimulated): did not elevate intracellular calcium or the calcium response to thapsigargin
effect on carbachol-stimulated chloride ion secretion / EGF induced inhibition (in words) [4]: enhances chloride ion secretion
effect on carbachol-stimulated chloride ion secretion / EGF induced inhibition (in words) ([4]; listed as Bt2 Ins(1,4,5,6)P4 /AM): significantly reversed EGF induced inhibition of chloride ion secretion
effect on PtdInsP3-mediated decrease in chloride ion secretion (in words) [5]: enhances chloride ion secretion
reversal of EGF inhibition of cyclic AMP-mediated chloride ion secretion (in words) [6]: did not reverse EGF inhibition of cyclic AMP-mediated chloride ion secretion
